The record followed here is patent US20110224133A1 (University of Southern California, priority 2008, published 2011).

“Also recorded” adds a separate entry of the source.

In test [1] the target is T1, Atg3 (Homo sapiens, UniProt Q9NT62).
T1 construct: expressed in transfected cells; host or cells: HEK293T
As to the kind of experiment: Co-immunoprecipitation and GST pulldown with Atg3 in HEK293T cells. Conditions: HEK293T cells, 48 hr post-transfection. In kind it is binding. An excerpt:
(§1) For panel A, at 48 hr post-transfection with Flag-vFLIP and/or GFP-Atg3 (left) or Flag-vFLIP and/or GST-Atg3 (middle), HEK293T cells were used for immunoprecipitation with αFlag, αGFP, or GST pulldown, followed by immunoblotting with the indicated antibodies. For panel A (right), HEK293T cells transfected with FIag-vFLIP were used for immunoprecipitation with mouse IgG or αFlag, followed by immunoblotting with αAtg3. Panel B (top) depicts a schematic diagram of human Atg3. N,N-terminus; FR, flexible region; C, C-terminus. […] Panel C (top) depicts a schematic diagram of KSHV vFLIP. […] For panel F, NIH3T3-Vector and NIH3T3-vFLIP cells were treated with 2 nM rapamycin for 12 hr and used for IP with αAtg3, followed by immunoblotting with αLC3. In panels A-F, whole cell lysates (WCLs) were used for immunoblotting with the indicated antibodies to show expression.
(§2) WCLs were used for immunoblotting with αFlag or αGST. […] WCLs were used for immunoblotting with αFlag or αGST.
(§3) The ability of FLIP to bind to Atg3 was evaluated by co-immunoprecipitation assay. HEK293T cells were transfected with Flag-vFLIP and/or GFP-Atg3 or Flag-vFLIP and/or GST-Atg3, and at 48 hr post-transfection, cells were harvested and lysed in an NP40 buffer supplemented with complete protease inhibitor cocktail (Roche). After pre-clearing with protein A/G agarose beads for 1 hr at 4° C., whole-cell lysates were used for immunoprecipitation with αFlag, αGFP, or GST. Generally, 1-4 μg of the antibody was added to 1 ml of the cell lysate and incubated at 4° C. for 8 to 12 hr. The immunoprecipitates were then washed extensively with a lysis buffer and eluted by boiling them with an SDS loading buffer for 5 min. Following immunoprecipitation, samples were treated to immunoblot using αAtg3 (1:500) (Novus).
(§4) The overall structure of yeast Atg3 has a unique hammer-like shape with the N-terminal and C-terminal regions discretely responsible for Atg7 and Atg8 (equivalent to mammalian LC3) binding, respectively. (Yamada et al. (2007) J. Biol. Chem. 282:8036-8043). Based on the structure of yeast Atg3, human Atg3 deletion mutants fused with a GST mammalian expression vector were constructed: GST-Atg31-93, GST-Atg3193-268, GST-Atg3268-315, and GST-Atg3193-315.

The test system of test [2] is Atg3. The description is as above. In kind it is binding, human. Conditions: GST-Atg3 deletion mutants, GST pulldown.
Source text: as §1, §2, §3, §4

Test [3] concerns the target T2, Atg3-LC3 interaction (Homo sapiens, UniProt Q9NT62).
T2 construct: expressed in transfected cells; host or cells: HEK293T
As to the kind of experiment: Competition with LC3 for Atg3 binding. The following applies: HEK293T cells, GST-Atg3 and GFP-LC3.
Source text: as §1
(§5) Due to identical Atg3 binding patterns seen in vFLIP and LC3, the ability of vFLIP to directly compete with LC3 for Atg3 binding was tested. HEK293T cells were transfected with GST-Atg3 and GFP-LC3 along with increasing amount of Flag-vFLIP. At 48 hr post-transfection, GST pulldown was performed as described above, followed by immunoblotting with αGFP or αFlag.

For test [4], the system named is Atg3-LC3 interaction. Briefly: Competition with LC3 for Atg3 binding. The following applies: NIH3T3 cells, normal conditions; weakly recovered with 2 nM rapamycin 12 hr.
Source text: as §1, §5

Test [5] concerns NIH3T3 cells. As to the kind of experiment: GFP-LC3 autophagy assay in NIH3T3 cells expressing FLIP. In kind it is cell-based, murine. Conditions: ectopic expression in NIH3T3 cells, Hank's solution 4 hr or 2 μM rapamycin 3 hr.
In another test the test system is BCBL1 cells. As to the kind of experiment: Protection of TREX-BCBL cells from rapamycin- or zVAD-induced growth suppression and autophagic death. In kind it is cell-based, human. The following applies: ectopic expression in BCBL1 cells; 50 nM rapamycin or 50 μM zVAD, 6 days. As for the experimental part: The effect of vFLIP on autophagy was tested in a KSHV-infected BCBL1 cell line.

A further test has as its system TREX-BCBL cells. Briefly: Autophagy and cell death in TREX-BCBL-vFLIP cells. The following applies: for suppression of rapamycin-induced autophagy (and cell death) in TREX-BCBL cells: doxycycline-induced vFLIP, 2 μM rapamycin 12 hr.
In test [6] the test system is HCT116, HaCat, and MEF cells. Briefly: GFP-LC3 autophagy assay in HCT116, HaCat and MEF cells. In kind it is cell-based. Conditions: 2 μM rapamycin 3 hr.
The subject of another test is LC3-II. As to the kind of experiment: Anti-LC3 immunoblotting of starved NIH3T3 cells expressing FLIP. Conditions: starvation, Hank's solution 4 hr. Type of test: cell-based, murine. On the procedure:
The arrows indicate autophagosomes.
During autophagy, an LC3 precursor (LC3-I) undergoes cleavage and lipidation to yield its processed form (LC3-II) (Mizushima et al. (2008) Nature 451:1069-1075). Immunoblotting was performed with an antibody against LC3 to further measure autophagic activity. […] Polypeptides were resolved by SDS-polyacrylamide gel electrophoresis (PAGE) and transferred to a PVDF membrane (Bio-Rad). […] The proteins were visualized by a chemiluminescence reagent (Pierce) and detected by a Fuji Phosphor Imager. […] Finally, the ability of FLIP to block autophagy in multiple cell types was evaluated.
A general note: In western blotting, separated proteins are transferred to a membrane and probed.

In another test the test system is NF-κB. Briefly: NF-κB luciferase reporter assay in NIH3T3 cells. Type of test: cell-based, murine. Conditions: 48 hr post-transfection. On the procedure: (§6) In panel A, propidium iodide (PI) staining and flow cytometry analysis were performed to determine apoptosis levels. In panels B-C, NIH3T3 cells containing vector, KSHV vFLIP, or its mutants were transfected with an NF-κB luciferase reporter construct and a control renilla luciferase plasmid, pRL-SV40. At 48 hr post-transfection, luciferase activity was measured with a luminometer using a dual luciferase assay kit and normalized with renilla luciferase activity to determine transfection efficiency (B). […] At 48 hr post-transfection, luciferase activity was measured as described above (E).
(§7) Propidium iodide (PI) staining and flow cytometry analysis were performed to determine apoptosis levels (FIG. 3A). Alternatively, NIH3T3 cells containing vector, KSHV vFLIP, or its mutants were transfected with an NF-κB-luciferase reporter construct and a control renilla luciferase plasmid, pRL-SV40 (Promega). At 48 hr post-transfection, luciferase activity was measured with a luminometer using a dual luciferase assay kit (Promega) and normalized with renilla luciferase activity to determine transfection efficiency (FIG. 3B).
(A reporter such as luciferase makes a cellular process visible.)

Test [7] concerns NIH3T3 cells. Briefly: TNF-α/CHX-induced apoptosis, PI staining and flow cytometry. Type of test: cell-based, murine. Conditions: 12 hr. On the procedure: as §6, §7

T2 sequence (Q9NT62 whole entry): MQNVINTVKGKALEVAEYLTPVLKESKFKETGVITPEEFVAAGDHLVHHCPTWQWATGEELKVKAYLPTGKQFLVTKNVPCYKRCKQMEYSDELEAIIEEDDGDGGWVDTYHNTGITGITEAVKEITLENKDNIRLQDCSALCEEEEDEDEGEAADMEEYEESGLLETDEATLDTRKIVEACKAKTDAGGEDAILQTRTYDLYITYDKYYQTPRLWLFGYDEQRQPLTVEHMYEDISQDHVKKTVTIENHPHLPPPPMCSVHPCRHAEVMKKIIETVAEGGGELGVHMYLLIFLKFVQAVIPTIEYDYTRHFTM
T1 sequence (Q9NT62 whole entry): as above

With “KSHV vFLIP: viral FLIP of Kaposi's sarcoma-associated herpes virus, full-length protein”, the Atg3 binding result in the test with Atg3 [1] was “strongly interacted with endogenously and exogenously expressed Atg3”. In the test with Atg3 [2], the “Atg3 regions bound (Atg3 deletion mutants)” value was “independently bound either the aa193-268 or aa268-315 region of the C-terminal of Atg3”. Also, the “Atg3-LC3 interaction with increasing vFLIP expression” value with Atg3-LC3 interaction [3] is “marked decrease of Atg3-LC3 interaction”. Further, the “endogenous Atg3 and LC3 interaction” value with Atg3-LC3 interaction [4] is “dramatic reduction of endogenous Atg3 and LC3 interaction”. For the same substance, the “suppression of starvation- and rapamycin-induced autophagy (GFP-LC3 puncta)” value in the test with NIH3T3 cells [5] is “strongly suppressed starvation- and rapamycin-induced autophagy; also recorded: anti-autophagy”; in the test with NIH3T3 cells [5] (listed as vFLIP) it was “effectively suppressed starvation- and rapamycin-induced autophagy”. The “protection from rapamycin- or zVAD-induced growth suppression and autophagic death” value in the test with BCBL1 cells was “almost completely blocked rapamycin- or zVAD-induced growth suppression and autophagic death”. For the same substance, the “inhibition of peptide-induced autophagy and cell death” value in the test on TREX-BCBL cells (TREX-BCBL-vFLIP cells treated with FLIP peptides) is reported as “minimal”. The “suppression of rapamycin-induced autophagy (and cell death) in TREX-BCBL cells” value in the test on TREX-BCBL cells is “readily blocked rapamycin-induced autophagy and cell death”; with TREX-BCBL cells (listed as vFLIP), “extensively suppressed rapamycin-induced autophagy”. For the same substance, the “blocking of autophagy in several cell types” value in [6] is listed as “efficiently blocked autophagy in a number of cell types”. The “processed LC3-II” value in the test on LC3-II was “little or no processed LC3-II”. Moreover, the NF-κB activation entry in the test with NF-κB is reported as “carried out NF-κB activation”. In addition, the “blocking of TNFα-induced apoptosis” value with NIH3T3 cells [7] is “anti-apoptosis”.
